Experimental data taken from patent US6284799A, “Cancer treatment” (priority 1996, dated 2001).
Like-named read-outs stand apart in the source and are kept apart here.

Experiments:
[1] = system: concanavalin A-stimulated normal lymphocytes; assay: proliferation of concanavalin A-stimulated normal lymphocytes; format: cell-based
[2] = system: C-3 fibrosarcoma cells; assay: tumor promotion in mice injected with C-3 fibrosarcoma cells; format: in vivo, C3H mice; conditions: for tumor growth: C-3 fibrosarcoma, FIG. 7, FIG. 9; for animals with tumors by day 5: n=10 per group, no controls had tumors
Text: The experiments were blinded so that the individual measuring the first appearance of palpable tumor was unaware of the treatment group (saline control vs antidepressant drug; n=10 in each group),

[3] = system: HIC; assay: inhibition of histamine binding to HIC in microsomes; set-up: species or system rat
[4] = system: phorbol myristate acetate (PMA)-induced platelet aggregation; assay: PMA-induced platelet aggregation; format: cell-based; conditions: for IC50: Platelet, read-out: IC50, antagonism of PMA-induced platelet aggregation
[5] = system: HIC; assay: competition for 3H-histamine binding to HIC in brain membranes; set-up: species or system rat; conditions: for Ki: rat cortical membranes
[6] = system: MCF-7 human breast cancer cells; conditions: MCF7, 168 h, read-out: IC50 value, inhibit/kill growth of MCF-7 cells
[7] = biological target: ^3 H-DPPE binding (HIC) in rat liver microsomes; assay: competition for 3H-DPPE binding in liver microsomes
[8] = system: PMA-induced inflammation in skin; assay: PMA-induced skin inflammation in DBA/2 mice; format: in vivo
Experimental: To investigate any effect of DPPE to increase PMA-induced inflammation in the same strain of mice (DBA/2), groups of 3 animals were shaved over the back and 48 hours later received a single topical application of […] PMA in acetone. The PMA-treated mice then received either saline (control) or DPPE (4 or 32 mg/kg at time 0 and 24 hours). Three animals painted with acetone served as vehicle controls. Forty-eight hours later, the various groups were sacrificed by CO2 asphyxiation, the skin carefully excised, pinned to paper strips to prevent, wrinkling, and immersed in formaldehyde. H and E-stained sections of skin were assessed for degree of inflammation.
Indeed, since tumor promotion requires the presence of inflammatory response, and can be blocked by agents which inhibit inflammation by definition, DPPE functions as a co-promoter with PMA.

[9] = system: L5178Y lymphoma cells; assay: tumor-promoting effect in DBA/2 mice inoculated subcutaneously with L5178Y lymphoma cells; format: in vivo
Text: A second group of 7 tumor cell-inoculated mice served as controls (saline injections, once daily×1). By day 14, 7/7 DPPE treated animals had palpable tumors as compared to 4/7 controls. At the end of 4 weeks, 6/7 controls had tumors with an aggregate surface area of 14.5 cm^2 (mean=2.1±0.8 cm^2 /animal), while 7/7 DPPE-treated animals had tumors with an aggregate surface area of 38.4 cm^2 (mean=5.5±0.7 cm^2 /animal). Thus, the tumor burden of DPPE-treatedanimals was approximately 2.5-fold greater than that of controls.

[10] = clinically relevant doses to enhance chemotherapy, about 0.2-12 mg/kg; cited from earlier work
[11] = system: rat uterus; conditions: cited from earlier work
[12] = 1 mg/kg s.c. once daily x3, end of 4 weeks

## CC(C)NC[C@H](O)COc1cccc2ccccc12 (racemic) [propanolol]
[1]
  inhibition of lymphocyte proliferation / mitogenesis: inhibits normal lymphocyte mitogenesis
[2]; C-3 fibrosarcoma murine model, FIG. 7
  tumor weight on Day 23: significantly increased tumor weight

## COc1ccc(CCN2CCC(Nc3nc4ccccc4n3Cc3ccc(F)cc3)CC2)cc1 [Astemizole]
[1]
  inhibition of lymphocyte proliferation / mitogenesis: potent to inhibit
[3]
  inhibition of histamine binding to HIC: potent to inhibit histamine binding
[2]
  tumor growth: potently stimulate the growth

## CCN(CC)CCOc1ccc(C(=O)c2ccc(F)cc2)cc1 [DFPE, N,N=diethyl-2-[4-(4'-fluorophenone)phenoxy] ethanamine]
[4]
  potency relative to DPPE in antagonizing PMA-induced platelet aggregation: approximately four times more potent
  IC50: 20 µM
[5]; brain membranes
  potency relative to DPPE in inhibiting histamine binding at HIC: approximately three times more potent
[5]; inhibiting normal cell proliferation and promoting malignant cell proliferation
  potency relative to DPPE in HIC binding competition assays: two to four times that of DPPE
[5]
  Ki: 0.3 µM
[6]
  IC50: 3 µM
[7]; rat liver microsomes, read-out: KI value, competition for [^3 H] DPPE binding
  Ki: ~0.07 µM

## CCN(CC)CCOc1ccc(Cc2ccccc2)cc1 [DPPE, N,N-diethyl-2-[4-(phenylmethyl)-phenoxy] ethanamine]
[1]
  inhibition of lymphocyte proliferation / mitogenesis: inhibit
[4]
  IC50: 80 µM
[8]; 32 mg/kg (128 mg/M^2)
  inflammatory response to PMA, high dose: most intense inflammatory response
[8]; 32 mg/kg, versus PMA and saline-treated groups
  mitotic activity in the epithelial layer: increased mitotic activity
[8]; 4 or 32 mg/kg at time 0 and 24 hours, skin assessed at 48 hours, versus saline or acetone controls
  inflammatory response to PMA: significantly greater inflammatory response
[9]; 1 mg/kg (4 mg/M^2) s.c. once daily x3, day 14, n=7
  animals with palpable tumors by day 14: 7/7
[9]; 1 mg/kg s.c. once daily x3, 4 weeks, n=7
  animals with tumors at the end of 4 weeks: 7/7
[9]; [12]
  aggregate tumor surface area: 38.4 cm^2
  mean tumor surface area per animal: 5.5±0.7 cm^2 /animal
[9]; end of 4 weeks, versus saline controls
  tumor burden relative to controls: approximately 2.5 fold
[5]
  Ki: 0.9 µM
[10]
  serious toxic effects in humans: does not cause serious toxic effects
[6]
  IC50: 6.5 µM
[7]; ^3 H-DPPE binding in liver microsomes
  Kd: 0.065 µM
[11]
  antiestrogenic activity in vivo: antiestrogenic in vivo
  effect on tamoxifen action in the rat uterus in vivo: augment the effects of tamoxifen

## CN(C)CCC=C1c2ccccc2CCc2ccccc21 [amitriptyline]
[1]; Lymphocyte, in the absence of cytotoxicity, FIG. 5, read-out: IC50, inhibition of proliferation
  IC50: 10 to 20 µM
[7]; liver microsomes, FIG. 2, read-out: K1 to compete for ^3 H-DPPE binding
  Ki: 10 µM
[2]
  animals with tumors by day 5: 4/10

## CNCCC(Oc1ccc(C(F)(F)F)cc1)c1ccccc1 (stereo not shown) [fluoxetine]
[2]
  animals with tumors by day 5: 4/10

## CCOC(=O)N1CCC(=C2c3ccc(Cl)cc3CCc3cccnc32)CC1 [loratidine]
[1]
  inhibition of lymphocyte proliferation / mitogenesis: inhibited concanavalin A-stimulated mitogenesis
[2]
  tumor growth: potently promoted tumor growth
